Source: the NIST ThermoML archive (doi:10.1016/j.tca.2013.08.031)
“And” between values parts separate entries of the source, which are not always exact repeats. Equal values may be shown once. ± gives the expanded uncertainty stated by the source.

Assay: molar heat capacity at constant volume
Settings: Fluid (supercritical or subcritical phases), Vacuum adiabatic calorimetry

CCC(C)O (stereo unspecified) [butan-2-ol]
Settings | molar heat capacity at constant volume
375.31 K, Mass density=735.98 kg/m3 | 219.47 ± 2.2 J/K/mol
375.53 K, Mass density=735.98 kg/m3 | 217.99 ± 2.2 J/K/mol
375.75 K, Mass density=735.98 kg/m3 | 218.29 ± 2.2 J/K/mol
375.97 K, Mass density=735.98 kg/m3 | 219.25 ± 2.2 J/K/mol
376.19 K, Mass density=735.98 kg/m3 | 217.99 ± 2.2 J/K/mol
376.42 K, Mass density=735.98 kg/m3 | 219.47 ± 2.2 J/K/mol
376.64 K, Mass density=735.98 kg/m3 | 218.29 ± 2.2 J/K/mol
376.86 K, Mass density=735.98 kg/m3 | 219.47 ± 2.2 J/K/mol
377.08 K, Mass density=735.98 kg/m3 | 217.77 ± 2.2 J/K/mol
377.3 K, Mass density=735.98 kg/m3 | 219.55 ± 2.2 J/K/mol
377.52 K, Mass density=735.98 kg/m3 | 219.33 ± 2.2 J/K/mol
407.02 K, Mass density=683.53 kg/m3 | 273.88 ± 2.7 J/K/mol
407.23 K, Mass density=683.53 kg/m3 | 278.47 ± 2.8 J/K/mol
407.44 K, Mass density=683.53 kg/m3 | 275.51 ± 2.7 J/K/mol
407.65 K, Mass density=683.53 kg/m3 | 274.18 ± 2.7 J/K/mol
407.86 K, Mass density=683.53 kg/m3 | 273.95 ± 2.8 J/K/mol
408.07 K, Mass density=683.53 kg/m3 | 279.22 ± 2.8 J/K/mol
408.28 K, Mass density=683.53 kg/m3 | 277.29 ± 2.8 J/K/mol
408.49 K, Mass density=683.53 kg/m3 | 260.39 ± 2.7 J/K/mol
408.7 K, Mass density=683.53 kg/m3 | 246.01 ± 2.5 J/K/mol
408.91 K, Mass density=683.53 kg/m3 | 240.23 ± 2.5 J/K/mol
409.12 K, Mass density=683.53 kg/m3 | 236.6 ± 2.4 J/K/mol
409.33 K, Mass density=683.53 kg/m3 | 234.08 ± 2.4 J/K/mol
409.54 K, Mass density=683.53 kg/m3 | 232.22 ± 2.4 J/K/mol
409.75 K, Mass density=683.53 kg/m3 | 224.59 ± 2.3 J/K/mol
409.96 K, Mass density=683.53 kg/m3 | 223.4 ± 2.3 J/K/mol
410.17 K, Mass density=683.53 kg/m3 | 224.22 ± 2.3 J/K/mol
410.38 K, Mass density=683.53 kg/m3 | 222.66 ± 2.2 J/K/mol
413.11 K, Mass density=648.53 kg/m3 | 272.62 ± 2.7 J/K/mol
413.31 K, Mass density=648.53 kg/m3 | 273.21 ± 2.7 J/K/mol
413.52 K, Mass density=648.53 kg/m3 | 273.66 ± 2.7 J/K/mol
413.73 K, Mass density=648.53 kg/m3 | 273.51 ± 2.7 J/K/mol
413.94 K, Mass density=648.53 kg/m3 | 272.62 ± 2.7 J/K/mol
414.15 K, Mass density=648.53 kg/m3 | 272.84 ± 2.7 J/K/mol
414.78 K, Mass density=683.53 kg/m3 | 226.66 ± 2.3 J/K/mol
414.99 K, Mass density=683.53 kg/m3 | 226.89 ± 2.3 J/K/mol
415.19 K, Mass density=683.53 kg/m3 | 227.55 ± 2.3 J/K/mol and 227.85 ± 2.3 J/K/mol
419.77 K, Mass density=683.53 kg/m3 | 228.67 ± 2.3 J/K/mol
419.97 K, Mass density=683.53 kg/m3 | 227.55 ± 2.3 J/K/mol
420.6 K, Mass density=683.53 kg/m3 | 230.59 ± 2.3 J/K/mol
421.42 K, Mass density=683.53 kg/m3 | 231.85 ± 2.4 J/K/mol
421.63 K, Mass density=683.53 kg/m3 | 230 ± 2.3 J/K/mol
422.25 K, Mass density=683.53 kg/m3 | 230.81 ± 2.3 J/K/mol
422.46 K, Mass density=683.53 kg/m3 | 231.11 ± 2.3 J/K/mol
422.66 K, Mass density=683.53 kg/m3 | 231.85 ± 2.4 J/K/mol
422.87 K, Mass density=683.53 kg/m3 | 231.33 ± 2.3 J/K/mol
423.08 K, Mass density=683.53 kg/m3 | 231.41 ± 2.3 J/K/mol
423.28 K, Mass density=683.53 kg/m3 | 230.81 ± 2.3 J/K/mol
423.49 K, Mass density=683.53 kg/m3 | 231.48 ± 2.4 J/K/mol
423.69 K, Mass density=683.53 kg/m3 | 231.93 ± 2.4 J/K/mol
424.31 K, Mass density=683.53 kg/m3 | 231.11 ± 2.3 J/K/mol
424.52 K, Mass density=683.53 kg/m3 | 230.52 ± 2.3 J/K/mol
424.72 K, Mass density=683.53 kg/m3 | 230.81 ± 2.3 J/K/mol
424.93 K, Mass density=683.53 kg/m3 | 230.44 ± 2.3 J/K/mol
425.14 K, Mass density=683.53 kg/m3 | 231.33 ± 2.3 J/K/mol
425.75 K, Mass density=683.53 kg/m3 | 231.19 ± 2.3 J/K/mol
425.96 K, Mass density=683.53 kg/m3 | 230.89 ± 2.3 J/K/mol and 228.44 ± 2.3 J/K/mol
426.16 K, Mass density=683.53 kg/m3 | 227.48 ± 2.3 J/K/mol
426.37 K, Mass density=683.53 kg/m3 | 226.74 ± 2.3 J/K/mol
426.58 K, Mass density=683.53 kg/m3 | 227.41 ± 2.3 J/K/mol
426.78 K, Mass density=683.53 kg/m3 | 227.03 ± 2.3 J/K/mol
426.99 K, Mass density=683.53 kg/m3 | 227.48 ± 2.3 J/K/mol
431.29 K, Mass density=648.53 kg/m3 | 278.03 ± 2.8 J/K/mol
431.49 K, Mass density=648.53 kg/m3 | 279.14 ± 2.8 J/K/mol
431.7 K, Mass density=648.53 kg/m3 | 277.66 ± 2.8 J/K/mol
431.9 K, Mass density=648.53 kg/m3 | 277.88 ± 2.8 J/K/mol
432.31 K, Mass density=648.53 kg/m3 | 278.77 ± 2.8 J/K/mol
432.51 K, Mass density=648.53 kg/m3 | 277.14 ± 2.8 J/K/mol
432.72 K, Mass density=648.53 kg/m3 | 277.44 ± 2.9 J/K/mol
432.92 K, Mass density=648.53 kg/m3 | 279.22 ± 2.9 J/K/mol
432.92 K, Mass density=683.53 kg/m3 | 227.18 ± 2.3 J/K/mol
433.12 K, Mass density=648.53 kg/m3 | 278.55 ± 2.9 J/K/mol
433.12 K, Mass density=683.53 kg/m3 | 228 ± 2.3 J/K/mol
433.33 K, Mass density=648.53 kg/m3 | 272.99 ± 2.8 J/K/mol
433.33 K, Mass density=683.53 kg/m3 | 227.63 ± 2.3 J/K/mol
433.53 K, Mass density=648.53 kg/m3 | 225.03 ± 2.4 J/K/mol
433.53 K, Mass density=683.53 kg/m3 | 227.78 ± 2.3 J/K/mol
433.73 K, Mass density=648.53 kg/m3 | 224.81 ± 2.4 J/K/mol
433.73 K, Mass density=683.53 kg/m3 | 228.29 ± 2.3 J/K/mol
433.94 K, Mass density=648.53 kg/m3 | 222.29 ± 2.4 J/K/mol
434.14 K, Mass density=648.53 kg/m3 | 223.48 ± 2.4 J/K/mol
434.55 K, Mass density=648.53 kg/m3 | 221.92 ± 2.2 J/K/mol
434.75 K, Mass density=648.53 kg/m3 | 221.25 ± 2.2 J/K/mol
434.96 K, Mass density=648.53 kg/m3 | 222.96 ± 2.2 J/K/mol
435.16 K, Mass density=648.53 kg/m3 | 222.74 ± 2.2 J/K/mol
435.36 K, Mass density=648.53 kg/m3 | 222.88 ± 2.2 J/K/mol
449.87 K, Mass density=598.18 kg/m3 | 278.18 ± 2.8 J/K/mol
450.07 K, Mass density=598.18 kg/m3 | 277.14 ± 2.8 J/K/mol
450.27 K, Mass density=598.18 kg/m3 | 279.22 ± 2.8 J/K/mol
450.47 K, Mass density=598.18 kg/m3 | 276.18 ± 2.8 J/K/mol
450.66 K, Mass density=598.18 kg/m3 | 277.36 ± 2.8 J/K/mol
457.62 K, Mass density=648.53 kg/m3 | 222.14 ± 2.2 J/K/mol
457.82 K, Mass density=598.18 kg/m3 | 274.62 ± 2.7 J/K/mol
457.82 K, Mass density=648.53 kg/m3 | 221.85 ± 2.2 J/K/mol
458.02 K, Mass density=598.18 kg/m3 | 274.4 ± 2.7 J/K/mol
458.02 K, Mass density=648.53 kg/m3 | 222.88 ± 2.2 J/K/mol
458.22 K, Mass density=598.18 kg/m3 | 277.66 ± 2.8 J/K/mol
458.22 K, Mass density=648.53 kg/m3 | 224.51 ± 2.3 J/K/mol
458.41 K, Mass density=598.18 kg/m3 | 277.29 ± 2.8 J/K/mol
458.41 K, Mass density=648.53 kg/m3 | 223.62 ± 2.2 J/K/mol
458.61 K, Mass density=598.18 kg/m3 | 278.85 ± 2.8 J/K/mol
458.81 K, Mass density=598.18 kg/m3 | 277.59 ± 2.8 J/K/mol
459.01 K, Mass density=598.18 kg/m3 | 279.44 ± 2.8 J/K/mol
462.16 K, Mass density=598.18 kg/m3 | 275.88 ± 2.8 J/K/mol
462.36 K, Mass density=598.18 kg/m3 | 274.69 ± 2.7 J/K/mol
462.56 K, Mass density=598.18 kg/m3 | 273.58 ± 2.7 J/K/mol
